Like-named read-outs stand apart in the source and are kept apart here.
What was measured:
Assay in all cases: selectivity profiling in a panel of 340 wild-type kinases (Reaction Biology Europe)
Format in all cases: binding
340 wild-type kinases [1] = molecular target: T1, 340 wild-type kinases (Homo sapiens, UniProt Q9Y243)
T1 construct: purchased Reaction Biology Europe

340 wild-type kinases [2] = molecular target: T2, 340 wild-type kinases (Homo sapiens, UniProt P07949)
T2 construct: purchased Reaction Biology Europe

340 wild-type kinases [3] = molecular target: T3, 340 wild-type kinases (Homo sapiens, UniProt Q9BQI3)
T3 construct: purchased Reaction Biology Europe
T3 sequence (Q9BQI3 whole entry): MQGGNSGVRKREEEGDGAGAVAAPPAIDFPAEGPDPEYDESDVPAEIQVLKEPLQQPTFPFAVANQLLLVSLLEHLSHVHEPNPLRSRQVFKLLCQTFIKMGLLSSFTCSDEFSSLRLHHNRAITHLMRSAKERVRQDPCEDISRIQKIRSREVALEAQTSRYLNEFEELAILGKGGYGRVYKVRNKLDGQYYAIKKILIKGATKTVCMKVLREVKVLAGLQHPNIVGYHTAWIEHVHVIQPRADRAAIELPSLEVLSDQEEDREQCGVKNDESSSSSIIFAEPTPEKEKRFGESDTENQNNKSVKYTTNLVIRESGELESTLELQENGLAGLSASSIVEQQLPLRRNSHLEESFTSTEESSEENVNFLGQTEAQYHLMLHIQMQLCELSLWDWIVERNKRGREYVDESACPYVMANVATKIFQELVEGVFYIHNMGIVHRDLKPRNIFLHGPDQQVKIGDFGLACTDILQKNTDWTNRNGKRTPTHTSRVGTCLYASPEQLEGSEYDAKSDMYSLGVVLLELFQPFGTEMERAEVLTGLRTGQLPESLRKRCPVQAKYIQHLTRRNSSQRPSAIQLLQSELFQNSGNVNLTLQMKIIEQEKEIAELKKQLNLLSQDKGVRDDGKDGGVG

340 wild-type kinases [4] = molecular target: T4, 340 wild-type kinases (Homo sapiens, UniProt Q6XUX3)
T4 construct: purchased Reaction Biology Europe
T4 sequence (Q6XUX3 1-929): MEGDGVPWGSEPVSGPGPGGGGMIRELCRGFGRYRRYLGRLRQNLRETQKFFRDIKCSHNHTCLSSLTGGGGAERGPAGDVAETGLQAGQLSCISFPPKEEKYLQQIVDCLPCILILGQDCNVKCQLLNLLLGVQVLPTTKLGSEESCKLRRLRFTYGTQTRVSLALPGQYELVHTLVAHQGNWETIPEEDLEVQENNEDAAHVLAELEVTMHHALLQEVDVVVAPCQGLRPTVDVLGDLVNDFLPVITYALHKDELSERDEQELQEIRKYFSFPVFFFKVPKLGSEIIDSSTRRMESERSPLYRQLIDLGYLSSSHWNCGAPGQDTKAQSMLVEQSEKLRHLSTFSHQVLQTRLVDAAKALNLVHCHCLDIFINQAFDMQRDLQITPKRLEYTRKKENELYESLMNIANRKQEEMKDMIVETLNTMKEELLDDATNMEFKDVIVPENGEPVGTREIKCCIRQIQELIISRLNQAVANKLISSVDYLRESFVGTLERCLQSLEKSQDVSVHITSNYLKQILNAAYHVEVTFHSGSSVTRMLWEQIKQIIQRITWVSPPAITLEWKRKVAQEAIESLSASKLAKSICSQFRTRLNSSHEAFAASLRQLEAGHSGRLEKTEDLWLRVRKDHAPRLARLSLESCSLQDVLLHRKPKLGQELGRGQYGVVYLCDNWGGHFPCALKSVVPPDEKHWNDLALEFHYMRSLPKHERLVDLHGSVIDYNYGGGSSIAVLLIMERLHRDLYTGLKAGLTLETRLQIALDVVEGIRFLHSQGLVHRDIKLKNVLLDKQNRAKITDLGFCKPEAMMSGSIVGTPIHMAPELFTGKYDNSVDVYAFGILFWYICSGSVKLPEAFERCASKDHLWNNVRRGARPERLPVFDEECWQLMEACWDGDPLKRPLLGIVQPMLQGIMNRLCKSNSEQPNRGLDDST

340 wild-type kinases [5] = molecular target: T5, 340 wild-type kinases (Homo sapiens, UniProt Q9H2X6)
T5 construct: purchased Reaction Biology Europe

340 wild-type kinases [6] = molecular target: T6, 340 wild-type kinases (Homo sapiens, UniProt Q15418)
T6 construct: purchased Reaction Biology Europe
T6 sequence (Q15418 whole entry): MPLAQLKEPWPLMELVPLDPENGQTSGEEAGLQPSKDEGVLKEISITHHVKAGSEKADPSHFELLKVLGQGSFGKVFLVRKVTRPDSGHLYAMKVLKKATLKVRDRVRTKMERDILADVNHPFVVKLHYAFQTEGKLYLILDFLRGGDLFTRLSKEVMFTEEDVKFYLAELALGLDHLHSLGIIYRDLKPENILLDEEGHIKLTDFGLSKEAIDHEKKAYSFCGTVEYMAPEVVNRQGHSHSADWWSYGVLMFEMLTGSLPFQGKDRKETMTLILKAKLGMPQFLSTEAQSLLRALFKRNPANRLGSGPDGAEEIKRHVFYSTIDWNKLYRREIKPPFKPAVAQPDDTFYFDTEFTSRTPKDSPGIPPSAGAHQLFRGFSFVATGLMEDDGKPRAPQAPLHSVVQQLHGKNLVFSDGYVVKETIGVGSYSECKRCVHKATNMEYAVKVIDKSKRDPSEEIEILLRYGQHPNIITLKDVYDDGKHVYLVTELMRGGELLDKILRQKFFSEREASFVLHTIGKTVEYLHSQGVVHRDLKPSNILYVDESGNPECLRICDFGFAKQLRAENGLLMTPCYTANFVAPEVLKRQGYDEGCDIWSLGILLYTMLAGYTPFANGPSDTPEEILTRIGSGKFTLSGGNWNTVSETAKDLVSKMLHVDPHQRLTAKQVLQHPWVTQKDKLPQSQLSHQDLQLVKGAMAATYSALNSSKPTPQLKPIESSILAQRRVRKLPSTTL

340 wild-type kinases [7] = molecular target: T7, 340 wild-type kinases (Homo sapiens, UniProt P50750)
T7 construct: purchased Reaction Biology Europe
T7 sequence (P50750 whole entry): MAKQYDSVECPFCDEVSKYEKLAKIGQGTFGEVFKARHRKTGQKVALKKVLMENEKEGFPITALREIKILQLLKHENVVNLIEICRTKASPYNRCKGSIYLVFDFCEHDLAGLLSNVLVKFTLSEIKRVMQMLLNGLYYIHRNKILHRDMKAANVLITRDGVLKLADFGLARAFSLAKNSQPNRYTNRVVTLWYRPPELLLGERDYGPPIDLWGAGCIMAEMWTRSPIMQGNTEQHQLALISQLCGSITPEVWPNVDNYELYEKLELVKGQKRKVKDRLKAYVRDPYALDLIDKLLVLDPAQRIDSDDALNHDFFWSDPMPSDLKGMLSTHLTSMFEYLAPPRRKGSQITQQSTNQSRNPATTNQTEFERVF

340 wild-type kinases [8] = molecular target: T8, 340 wild-type kinases (Homo sapiens, UniProt Q9H422)
T8 construct: purchased Reaction Biology Europe
T8 sequence (Q9H422 whole entry): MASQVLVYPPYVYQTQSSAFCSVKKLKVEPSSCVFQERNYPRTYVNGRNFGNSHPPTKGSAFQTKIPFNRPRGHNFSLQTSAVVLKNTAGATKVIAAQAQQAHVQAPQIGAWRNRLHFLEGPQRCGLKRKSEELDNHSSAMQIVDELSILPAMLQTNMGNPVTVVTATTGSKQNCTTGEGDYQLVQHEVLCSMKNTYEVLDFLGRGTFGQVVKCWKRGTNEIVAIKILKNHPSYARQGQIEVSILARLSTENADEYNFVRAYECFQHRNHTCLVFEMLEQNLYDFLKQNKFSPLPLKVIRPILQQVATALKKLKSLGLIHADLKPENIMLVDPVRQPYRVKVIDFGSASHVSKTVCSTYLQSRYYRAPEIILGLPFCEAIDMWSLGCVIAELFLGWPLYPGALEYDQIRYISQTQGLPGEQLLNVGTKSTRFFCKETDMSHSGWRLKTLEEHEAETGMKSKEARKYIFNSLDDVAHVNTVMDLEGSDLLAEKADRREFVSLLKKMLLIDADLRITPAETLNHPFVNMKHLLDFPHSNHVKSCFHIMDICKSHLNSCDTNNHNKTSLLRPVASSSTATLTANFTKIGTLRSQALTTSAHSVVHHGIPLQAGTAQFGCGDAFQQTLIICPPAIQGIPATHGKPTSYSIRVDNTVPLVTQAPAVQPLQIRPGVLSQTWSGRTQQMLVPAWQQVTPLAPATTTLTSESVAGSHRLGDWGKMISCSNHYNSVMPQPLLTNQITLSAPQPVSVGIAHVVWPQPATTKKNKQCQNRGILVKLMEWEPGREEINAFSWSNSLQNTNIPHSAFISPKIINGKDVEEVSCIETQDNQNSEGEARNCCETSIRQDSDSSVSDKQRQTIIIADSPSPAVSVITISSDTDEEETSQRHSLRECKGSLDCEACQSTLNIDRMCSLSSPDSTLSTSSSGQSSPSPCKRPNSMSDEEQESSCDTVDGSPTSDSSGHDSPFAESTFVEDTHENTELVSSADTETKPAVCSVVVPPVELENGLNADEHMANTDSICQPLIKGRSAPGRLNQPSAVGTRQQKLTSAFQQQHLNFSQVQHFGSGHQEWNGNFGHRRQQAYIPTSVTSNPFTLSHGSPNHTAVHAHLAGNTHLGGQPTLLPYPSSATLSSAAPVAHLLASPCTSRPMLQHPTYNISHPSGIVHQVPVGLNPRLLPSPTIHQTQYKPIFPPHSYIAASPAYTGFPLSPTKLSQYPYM

340 wild-type kinases [9] = molecular target: T9, 340 wild-type kinases (Homo sapiens, UniProt Q16620)
T9 construct: purchased Reaction Biology Europe
T9 sequence (Q16620 32-822): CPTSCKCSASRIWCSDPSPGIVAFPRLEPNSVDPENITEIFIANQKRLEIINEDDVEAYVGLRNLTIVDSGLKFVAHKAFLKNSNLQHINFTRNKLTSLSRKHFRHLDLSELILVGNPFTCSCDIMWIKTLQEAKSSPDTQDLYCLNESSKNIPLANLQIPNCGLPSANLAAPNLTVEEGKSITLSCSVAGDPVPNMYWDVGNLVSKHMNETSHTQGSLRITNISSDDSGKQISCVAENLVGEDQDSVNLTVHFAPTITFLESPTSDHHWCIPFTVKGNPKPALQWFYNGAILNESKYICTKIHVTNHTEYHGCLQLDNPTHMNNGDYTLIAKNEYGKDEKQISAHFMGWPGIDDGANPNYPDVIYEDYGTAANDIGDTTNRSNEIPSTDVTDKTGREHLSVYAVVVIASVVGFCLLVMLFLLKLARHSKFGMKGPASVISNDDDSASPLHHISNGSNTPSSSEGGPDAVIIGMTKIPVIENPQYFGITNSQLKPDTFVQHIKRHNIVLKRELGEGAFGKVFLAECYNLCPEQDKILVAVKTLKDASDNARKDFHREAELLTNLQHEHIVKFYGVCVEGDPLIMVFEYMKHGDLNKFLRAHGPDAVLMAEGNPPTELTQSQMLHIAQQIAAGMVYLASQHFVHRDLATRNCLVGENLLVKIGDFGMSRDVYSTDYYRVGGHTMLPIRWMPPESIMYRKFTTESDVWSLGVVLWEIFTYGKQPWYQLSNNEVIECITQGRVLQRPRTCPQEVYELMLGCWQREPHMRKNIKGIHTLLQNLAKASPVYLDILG

340 wild-type kinases [10] = molecular target: T10, 340 wild-type kinases (Homo sapiens, UniProt Q14164)
T10 construct: purchased Reaction Biology Europe
T10 sequence (Q14164 1-716): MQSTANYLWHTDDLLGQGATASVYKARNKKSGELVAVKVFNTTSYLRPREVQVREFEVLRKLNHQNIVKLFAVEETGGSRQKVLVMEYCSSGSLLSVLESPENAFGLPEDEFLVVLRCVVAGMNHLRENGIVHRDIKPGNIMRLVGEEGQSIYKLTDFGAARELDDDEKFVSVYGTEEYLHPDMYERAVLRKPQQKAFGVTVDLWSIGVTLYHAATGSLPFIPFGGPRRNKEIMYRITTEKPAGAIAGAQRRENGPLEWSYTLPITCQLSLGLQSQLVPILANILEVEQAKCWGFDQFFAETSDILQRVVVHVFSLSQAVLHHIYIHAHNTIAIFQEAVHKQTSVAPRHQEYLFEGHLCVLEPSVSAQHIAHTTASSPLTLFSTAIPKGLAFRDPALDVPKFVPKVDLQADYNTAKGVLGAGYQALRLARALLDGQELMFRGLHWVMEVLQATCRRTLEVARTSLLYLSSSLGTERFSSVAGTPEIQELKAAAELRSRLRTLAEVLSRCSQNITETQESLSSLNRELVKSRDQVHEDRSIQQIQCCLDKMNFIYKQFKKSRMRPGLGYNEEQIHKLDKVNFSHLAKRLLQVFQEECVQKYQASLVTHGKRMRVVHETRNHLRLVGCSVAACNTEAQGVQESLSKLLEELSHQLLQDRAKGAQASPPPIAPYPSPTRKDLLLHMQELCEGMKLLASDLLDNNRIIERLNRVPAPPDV

T1 sequence (Q9Y243 whole entry): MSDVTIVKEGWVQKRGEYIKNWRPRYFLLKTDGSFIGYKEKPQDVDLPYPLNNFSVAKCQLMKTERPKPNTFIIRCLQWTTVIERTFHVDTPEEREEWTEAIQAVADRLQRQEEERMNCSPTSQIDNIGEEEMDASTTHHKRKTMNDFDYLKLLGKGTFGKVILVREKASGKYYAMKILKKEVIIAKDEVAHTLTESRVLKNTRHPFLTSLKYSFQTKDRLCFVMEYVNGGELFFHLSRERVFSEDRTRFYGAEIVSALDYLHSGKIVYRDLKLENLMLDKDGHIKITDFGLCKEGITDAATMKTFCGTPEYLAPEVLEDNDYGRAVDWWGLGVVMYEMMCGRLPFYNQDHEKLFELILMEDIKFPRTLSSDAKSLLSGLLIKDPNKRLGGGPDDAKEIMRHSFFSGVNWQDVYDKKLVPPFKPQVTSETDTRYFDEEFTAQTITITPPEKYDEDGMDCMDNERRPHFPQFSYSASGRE

Compound: CNC(=O)c1ccc2c(c1)C(=O)c1ccc(Nc3ccc(F)c(NC(=O)C4CC4)c3)cc1CC2 [Compound 2015]
- remaining activity at 0.2 µM (340 wild-type kinases [1]; 0.2 µM 2015, read-out: AKT3 residual activity): 96%
- remaining activity at 1 µM (340 wild-type kinases [1]; 1 µM 2015, read-out: AKT3 residual activity): 89.5%
- remaining activity at 0.2 µM (340 wild-type kinases [1]; AKT3, 0.2 µM, read-out: residual activity): 96%
- remaining activity at 1 µM (340 wild-type kinases [1]; AKT3, 1 µM, read-out: residual activity): 89.5%
- remaining activity at 0.2 µM (340 wild-type kinases [2]; 0.2 µM 2015, read-out: RET residual activity): 105%
- remaining activity at 1 µM (340 wild-type kinases [2]; 1 µM 2015, read-out: RET residual activity): 80.3%
- remaining activity at 0.2 µM (340 wild-type kinases [2]; RET, 0.2 µM, read-out: residual activity): 105%
- remaining activity at 1 µM (340 wild-type kinases [2]; RET, 1 µM, read-out: residual activity): 80.3%
- remaining activity at 0.2 µM (340 wild-type kinases [3]; 0.2 µM 2015, read-out: HRI residual activity): 75%
- remaining activity at 1 µM (340 wild-type kinases [3]; 1 µM 2015, read-out: HRI residual activity): 93.7%
- remaining activity at 0.2 µM (340 wild-type kinases [3]; HRI, 0.2 µM, read-out: residual activity): 75%
- remaining activity at 1 µM (340 wild-type kinases [3]; HRI, 1 µM, read-out: residual activity): 93.7%
- remaining activity at 0.2 µM (340 wild-type kinases [4]; 0.2 µM 2015, read-out: RIPK5 residual activity): 92.4%
- remaining activity at 1 µM (340 wild-type kinases [4]; 1 µM 2015, read-out: RIPK5 residual activity): 88.1%
- remaining activity at 0.2 µM (340 wild-type kinases [4]; RIPK5, 0.2 µM, read-out: residual activity): 92.4%
- remaining activity at 1 µM (340 wild-type kinases [4]; RIPK5, 1 µM, read-out: residual activity): 88.1%
- remaining activity at 0.2 µM (340 wild-type kinases [5]; 0.2 µM 2015, read-out: HIPK2 residual activity): 93.7%
- remaining activity at 1 µM (340 wild-type kinases [5]; 1 µM 2015, read-out: HIPK2 residual activity): 97.9%
- remaining activity at 0.2 µM (340 wild-type kinases [5]; HIPK2, 0.2 µM, read-out: residual activity): 93.7%
- remaining activity at 1 µM (340 wild-type kinases [5]; HIPK2, 1 µM, read-out: residual activity): 97.9%
- remaining activity at 0.2 µM (340 wild-type kinases [6]; 0.2 µM 2015, read-out: RPS6KA1 residual activity): 100%
- remaining activity at 1 µM (340 wild-type kinases [6]; 1 µM 2015, read-out: RPS6KA1 residual activity): 94.3%
- remaining activity at 0.2 µM (340 wild-type kinases [6]; RPS6KA1, 0.2 µM, read-out: residual activity): 100%
- remaining activity at 1 µM (340 wild-type kinases [6]; RPS6KA1, 1 µM, read-out: residual activity): 94.3%
- remaining activity at 0.2 µM (340 wild-type kinases [7]; 0.2 µM 2015, read-out: CDK9/CycK residual activity): 94.2%
- remaining activity at 0.2 µM (340 wild-type kinases [7]; 0.2 µM 2015, read-out: CDK9/CycT1 residual activity): 107%
- remaining activity at 1 µM (340 wild-type kinases [7]; 1 µM 2015, read-out: CDK9/CycK residual activity): 95.1%
- remaining activity at 1 µM (340 wild-type kinases [7]; 1 µM 2015, read-out: CDK9/CycT1 residual activity): 94%
- remaining activity at 0.2 µM (340 wild-type kinases [7]; CDK9/CycK, 0.2 µM, read-out: residual activity): 94.2%
- remaining activity at 1 µM (340 wild-type kinases [7]; CDK9/CycK, 1 µM, read-out: residual activity): 95.2%
- remaining activity at 0.2 µM (340 wild-type kinases [7]; CDK9/CycT1, 0.2 µM, read-out: residual activity): 107%
- remaining activity at 1 µM (340 wild-type kinases [7]; CDK9/CycT1, 1 µM, read-out: residual activity): 94%
- remaining activity at 0.2 µM (340 wild-type kinases [8]; 0.2 µM 2015, read-out: HIPK3 residual activity): 104%
- remaining activity at 1 µM (340 wild-type kinases [8]; 1 µM 2015, read-out: HIPK3 residual activity): 104%
- remaining activity at 0.2 µM (340 wild-type kinases [8]; HIPK3, 0.2 µM, read-out: residual activity): 104%
- remaining activity at 1 µM (340 wild-type kinases [8]; HIPK3, 1 µM, read-out: residual activity): 104%
- remaining activity at 0.2 µM (340 wild-type kinases [9]; 0.2 µM 2015, read-out: TRKB residual activity): 99.7%
- remaining activity at 1 µM (340 wild-type kinases [9]; 1 µM 2015, read-out: TRKB residual activity): 91.3%
- remaining activity at 0.2 µM (340 wild-type kinases [9]; TRKB, 0.2 µM, read-out: residual activity): 99.7%
- remaining activity at 1 µM (340 wild-type kinases [9]; TRKB, 1 µM, read-out: residual activity): 91.3%
- remaining activity at 0.2 µM (340 wild-type kinases [10]; 0.2 µM 2015, read-out: IKKepsilon residual activity): 103%
- remaining activity at 1 µM (340 wild-type kinases [10]; 1 µM 2015, read-out: IKKepsilon residual activity): 92.6%
- remaining activity at 0.2 µM (340 wild-type kinases [10]; IKKepsilon, 0.2 µM, read-out: residual activity): 103%
- remaining activity at 1 µM (340 wild-type kinases [10]; IKKepsilon, 1 µM, read-out: residual activity): 92.6%

From paper PMC11864979, “First-in-class ultralong-target-residence-time p38α inhibitors as a mitosis-targeted therapy for colorectal cancer” (Nature Cancer, 2025)
